Source: PubChem BioAssay (NCI)
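Following 48 hours of exposure in 96-well plates, responses at five concentrations were used to interpolate endpoints linearly. TGI denotes the concentration required for complete inhibition of growth.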

How the values were obtained:
Experiment in all cases: NCI-60 cell line screen, 48 h
[1] = tested on: SK-MEL-5 melanoma
[2] = tested on: CCRF-CEM leukemia
[3] = tested on: UACC-62 melanoma
[4] = tested on: OVCAR-8 ovarian
[5] = tested on: HCT-15 colon
[6] = tested on: RPMI-8226 leukemia
[7] = tested on: UO-31 renal
[8] = tested on: NCI-H226 lung
[9] = tested on: M14 melanoma
[10] = tested on: SF-268 CNS
[11] = tested on: DMS 273 small cell lung
[12] = tested on: DMS 114 small cell lung
[13] = tested on: RXF-631 renal
[14] = tested on: RXF 393 renal
[15] = tested on: HL-60(TB) leukemia
[16] = tested on: HOP-62 NSCLC
[17] = tested on: A549 NSCLC
[18] = tested on: SNB-75 CNS
[19] = tested on: LXFL 529 NSCLC
[20] = tested on: TK-10 renal
[21] = tested on: 786-0 renal
[22] = tested on: OVCAR-4 ovarian
[23] = tested on: NCI-H460 lung
[24] = tested on: SK-MEL-2 melanoma
[25] = tested on: OVCAR-3 ovarian
[26] = tested on: SW-620 colon
[27] = tested on: M19-MEL melanoma
[28] = tested on: SK-MEL-28 melanoma
[29] = tested on: IGROV1 ovarian
[30] = tested on: SNB-19 CNS
[31] = tested on: K-562 leukemia
[32] = tested on: SN12C renal
[33] = tested on: CAKI-1 renal
[34] = tested on: KM12 colon
[35] = tested on: SF-295 CNS
[36] = tested on: UACC-257 melanoma
[37] = tested on: OVCAR-5 ovarian
[38] = tested on: HT29 colon
[39] = tested on: ACHN renal
[40] = tested on: SK-OV-3 ovarian
[41] = tested on: SF-539 CNS
[42] = tested on: MOLT-4 leukemia
[43] = tested on: NCI-H522 lung
[44] = tested on: HOP-92 NSCLC
[45] = tested on: COLO 205 colon
[46] = tested on: LOX IMVI melanoma
[47] = tested on: MALME-3M melanoma
[48] = tested on: U251 CNS

Measured: TGI

CN=C(N)c1ccc(N=C(N)c2ccc(C(N)=Nc3ccc(C(N)=NC)cc3)cc2)cc1
> 100 µM: all assays above
